Patent US10087427B2, “Glycosyltransferase gene and use thereof” (SUNTORY HOLDINGS LIMITED, priority 2014, dated 2018)

Test system: NmGT22 protein
Assay: Enzyme activity of purified His-tag NmGT22 protein on flavonoid substrates (HPLC)
Assay type: biochemical, Nemophila menziesii
Conditions: NmGT22 protein solution, UDP-glucose, 2 mM substrate, same reaction conditions
Protocol: E. coli strain BL2 introduced with pET SUMO-NmGT22 described in Example 5 was cultured using the Overnight Express Auto-induction System 1 (Novagen Inc.) in accordance with the manufacturer's recommended protocol. The transformed E. coli were cultured in 8 ml of prepared culture broth at 37° C. until the OD600 value reached 0.5 (about 4 hours). This E. coli culture broth was added to 200 ml of a culture broth as pre-culture broth followed by final culturing overnight at 25° C.
After having been cultured overnight, the E. coli culture broth was centrifuged (1,000×g, 4° C., 10 minutes), the harvested bacterial cells were suspended in 20 ml of extract (composition: buffer solution (300 mM KCl, 50 mM KH2PO4, 5 mM imidazole) (pH 8.0), 10 μM amidinophenylmethanesulfonyl fluoride hydrochloride (APMSF)), and the E. coli were crushed by ultrasonic treatment followed by centrifuging (1,400×g, 4° C., 20 minutes) and recovering the supernatant. The supernatant was passed through a 0.45 μm filter and subjected to His-Tag purification using Profinia (Bio-Rad Corp.) in accordance with the manufacturer's recommended protocol. The resulting purified protein solution was centrifuged (7,500×g, 4° C., 15 minutes) using a centrifugal filter unit (Ultracel-10K, Amicon Ultra), and the concentrated protein solution was used as “NmGT-22 Protein Solution”. The Avanti HP-26XP centrifuge (rotor: JA-2, Beckman Coulter Inc.) was used for centrifugation.
A reaction solution prepared by mixing 10 μl of protein solution, 2 it of 50 mM UDP-glucose, 10 μl of 1 M Tris-HCl (pH 7.5) and 1 μl of 2 mM apigenin 4′-glucoside (dissolved in 50% aqueous acetonitrile solution containing 0.1% TFA) on ice and bringing to reaction volume of 100 μl with water was held for 20 minutes at 30° C. Subsequently, 100 μl of stop buffer (90% aqueous acetonitrile solution containing 0.1% TFA) were added to stop the reaction followed by analyzing the reaction solution by high-performance liquid chromatography (Prominence, Shimadzu Corp.). Flavone was detected at 330 nm using the Shimadzu PDA SPD-M10AVP for the detector. The Shim-Pack ODS column (150 mm×4.6 mm, Shimadzu Corp.) was used for the column. A liquid A (0.1% aqueous TFA solution) and a liquid B (90% aqueous methanol solution containing 0.1% TFA) were used for elution. Elution was carried out for 10 minutes at a linear concentration gradient from an 8:2 mixture of the two solutions to a 3:7 mixture of the two solutions followed by eluting for 6 minutes using a 3:7 mixture of the two solutions. The flow rate was 0.6 ml/min.

Row | SMILES | product synthesized by enzyme reaction
1 | O=c1cc(-c2ccc(O[C@@H]3O[C@H](CO)[C@@H](O)[C@H](O)[C@H]3O)c(O)c2)oc2cc(O)cc(O)c12 [luteolin 4′-glucoside] | Luteolin 4′,7-diglucoside was synthesized

Same assay, conditions: NmGT22 protein solution, UDP-glucose, 1 μl of 2 mM substrate in 100 μl, 20 minutes at 30° C.

Row | SMILES | reaction rate (percentage of transformed substrate)
2 | O=c1cc(-c2ccc(O)cc2)oc2cc(O[C@@H]3O[C@H](CO)[C@@H](O)[C@H](O)[C@H]3O)cc(O)c12 [apigenin 7-glucoside] | 2.69%
3 | O=c1cc(-c2ccc(O[C@@H]3O[C@H](CO)[C@@H](O)[C@H](O)[C@H]3O)cc2)oc2cc(O)cc(O)c12 [apigenin 4′-glucoside] | 100%
4 | O=c1cc(-c2ccc(O)c(O)c2)oc2cc(O[C@@H]3O[C@H](CO)[C@@H](O)[C@H](O)[C@H]3O)cc(O)c12 [luteolin 7-glucoside] | 16.10%

Continued, values first:

Row | reaction rate (percentage of transformed substrate) | SMILES
5 | 99.07% | O=c1cc(-c2ccc(O)c(O)c2)oc2cc(O)cc(O)c12 [luteolin, 3′,4′,5,7-tetrahydroxyflavone]
6 | 77.16% | O=c1cc(-c2ccc(O)cc2)oc2cc(O)cc(O)c12 [apigenin, 4′,5,7-trihydroxyflavone]
